# US6689773B2, “Uracil substituted phenyl sulfamoyl carboxamides” (BASF Aktiengesellschaft, priority 2000, dated 2004)
# How the values were obtained:
# Type in all cases: in vivo
# [1] = test system: ZEAMX, Field corn, Zea mays L.; test: Postemergence herbicidal evaluation (Example 147); details: rating scale 0-9, two to three weeks after treatment
# Procedure: (§1) Seedling plants were grown in jiffy flats for about two weeks. The test compounds were dispersed in 80/20 acetone/water mixtures containing 1.0% SUN-IT®II, a methylated seed oil, in sufficient quantities to provide the equivalent of about 0.016 to 0.032 kg per hectare of active compound when applied to the plants through a spray nozzle operating at 40 psi for a predetermined time. After spraying, the plants were placed on greenhouse benches and were cared for in accordance with conventional greenhouse procedures. Approximately two to three weeks after treatment, the seedling plants were examined and rated according to the rating scale (0-9) set forth below. Where more than one test is involved for a given compound, the data are averaged. [table] The scale is based upon a visual observation of plant stand, vigor, malformation, size, chlorosis and overall plant appearance as compared with a control. Plant species employed in these evaluations are reported by header abbreviation, common name and scientific name. [table]
# [2] = test system: IPOHE, Morningglory, Ivyleaf, Ipomoea hederacea, (L)Jacq.; test: Postemergence herbicidal evaluation (Example 147); details: rating scale 0-9, two to three weeks after treatment
# Procedure: as §1
# [3] = test system: AMBEL, Ragweed, Common, Ambrosia artemiisifolia, L.; test: Postemergence herbicidal evaluation (Example 147); details: rating scale 0-9, two to three weeks after treatment
# Procedure: as §1
# [4] = test system: ALOMY, Blackgrass, Alopecurus myosuroides; test: Postemergence herbicidal evaluation (Example 147); details: rating scale 0-9, two to three weeks after treatment
# Procedure: as §1
# [5] = test system: CHEAL, Lambsquarters, Chenopodium album, L. Common; test: Postemergence herbicidal evaluation (Example 147); details: rating scale 0-9, two to three weeks after treatment
# Procedure: as §1
# [6] = test system: DIGSA, Crabgrass, (Hairy) L, Digitaria sanguinalis, (L)Scop; test: Postemergence herbicidal evaluation (Example 147); details: rating scale 0-9, two to three weeks after treatment
# Procedure: as §1
# [7] = test system: ECHCG, Barnyardgrass, Echinochloa crusgalli, (L.)Beau; test: Postemergence herbicidal evaluation (Example 147); details: rating scale 0-9, two to three weeks after treatment
# Procedure: as §1
# [8] = test system: TRZAW, Winter wheat, Tritium Aestivum, L. (Winter); test: Postemergence herbicidal evaluation (Example 147); details: rating scale 0-9, two to three weeks after treatment
# Procedure: as §1
# [9] = test system: SETVI, Green foxtail, Setaria viridis, (L.)Beau; test: Postemergence herbicidal evaluation (Example 147); details: rating scale 0-9, two to three weeks after treatment
# Procedure: as §1
# [10] = test system: ABUTH, Velvetleaf, Abutilon theophrasti, Medic.; test: Postemergence herbicidal evaluation (Example 147); details: rating scale 0-9, two to three weeks after treatment
# Procedure: as §1
# [11] = test system: GLXMA, Soybean, Glycine max, (L.) Merr.; test: Postemergence herbicidal evaluation (Example 147); details: rating scale 0-9, two to three weeks after treatment
# Procedure: as §1
# [12] = test system: ZEAMX, Field corn, Zea mays L.; test: Preemergence herbicidal evaluation (Example 148); details: rating scale 0-9, two to four weeks after treatment
# Procedure: (§2) The scale is based upon a visual observation of plant stand, vigor, malformation, size, chlorosis and overall plant appearance as compared with a control.
# (§3) The herbicidal activity of the compounds of the present invention was evaluated by the following tests wherein the seeds of a variety of monocotyledonous and dicotyledonous plants were separately mixed with potting soil and planted on top of approximately one inch of soil in separate pint cups. After planting, the cups were sprayed with the selected aqueous acetone solution containing test compound in sufficient quantity to provide the equivalent of about 0.125 to 0.250 kg per hectare of test compound per cup. The treated cups were then placed on greenhouse benches, watered and cared for in accordance with conventional greenhouse procedures. From two to four weeks after treatment, the tests were terminated and each cup was examined and rated according to the rating system provided in Example 94. When more than one test was performed for a given compound, the data were averaged.
# [13] = test system: IPOHE, Morningglory, Ivyleaf, Ipomoea hederacea, (L)Jacq.; test: Preemergence herbicidal evaluation (Example 148); details: rating scale 0-9, two to four weeks after treatment
# Procedure: as §2, §3
# [14] = test system: AMBEL, Ragweed, Common, Ambrosia artemiisifolia, L.; test: Preemergence herbicidal evaluation (Example 148); details: rating scale 0-9, two to four weeks after treatment
# Procedure: as §2, §3
# [15] = test system: ALOMY, Blackgrass, Alopecurus myosuroides; test: Preemergence herbicidal evaluation (Example 148); details: rating scale 0-9, two to four weeks after treatment
# Procedure: as §2, §3
# [16] = test system: CHEAL, Lambsquarters, Chenopodium album, L. Common; test: Preemergence herbicidal evaluation (Example 148); details: rating scale 0-9, two to four weeks after treatment
# Procedure: as §2, §3
# [17] = test system: DIGSA, Crabgrass, (Hairy) L, Digitaria sanguinalis, (L)Scop; test: Preemergence herbicidal evaluation (Example 148); details: rating scale 0-9, two to four weeks after treatment
# Procedure: as §2, §3
# [18] = test system: ECHCG, Barnyardgrass, Echinochloa crusgalli, (L.)Beau; test: Preemergence herbicidal evaluation (Example 148); details: rating scale 0-9, two to four weeks after treatment
# Procedure: as §2, §3
# [19] = test system: TRZAW, Winter wheat, Tritium Aestivum, L. (Winter); test: Preemergence herbicidal evaluation (Example 148); details: rating scale 0-9, two to four weeks after treatment
# Procedure: as §2, §3
# [20] = test system: SETVI, Green foxtail, Setaria viridis, (L.)Beau; test: Preemergence herbicidal evaluation (Example 148); details: rating scale 0-9, two to four weeks after treatment
# Procedure: as §2, §3
# [21] = test system: ABUTH, Velvetleaf, Abutilon theophrasti, Medic.; test: Preemergence herbicidal evaluation (Example 148); details: rating scale 0-9, two to four weeks after treatment
# Procedure: as §2, §3
# [22] = test system: XANST, Cocklebur, Xanthium strumariam; test: Preemergence herbicidal evaluation (Example 148); details: rating scale 0-9, two to four weeks after treatment
# Procedure: as §2, §3
# [23] = test system: GLXMA, Soybean, Glycine max, (L.) Merr.; test: Preemergence herbicidal evaluation (Example 148); details: rating scale 0-9, two to four weeks after treatment
# Procedure: as §2, §3
compound,measurement,setting,value
C#CCNS(=O)(=O)NC(=O)c1cc(-n2c(=O)cc(C(F)(F)F)n(C)c2=O)c(F)cc1Cl [Example 71],Postemergence herbicidal rating ZEAMX,[1]; rate 0.016 kg/ha,6.5
same,Postemergence herbicidal rating ZEAMX,[1]; rate 0.032 kg/ha,6.5
same,Postemergence herbicidal rating IPOHE,[2]; rate 0.016 kg/ha,8.0
same,Postemergence herbicidal rating IPOHE,[2]; rate 0.032 kg/ha,9.0
same,Postemergence herbicidal rating AMBEL,[3]; rate 0.016 kg/ha,6.0
same,Postemergence herbicidal rating AMBEL,[3]; rate 0.032 kg/ha,9.0
same,Postemergence herbicidal rating ALMOY,[4]; rate 0.016 kg/ha,1.0
same,Postemergence herbicidal rating ALMOY,[4]; rate 0.032 kg/ha,1.0
same,Postemergence herbicidal rating CHEAL,[5]; rate 0.016 kg/ha,5.0
same,Postemergence herbicidal rating CHEAL,[5]; rate 0.032 kg/ha,5.0
same,Postemergence herbicidal rating DIGSA,[6]; rate 0.016 kg/ha,2.0
same,Postemergence herbicidal rating DIGSA,[6]; rate 0.032 kg/ha,3.0
same,Postemergence herbicidal rating ECHCG,[7]; rate 0.016 kg/ha,2.0
same,Postemergence herbicidal rating ECHCG,[7]; rate 0.032 kg/ha,3.0
same,Postemergence herbicidal rating TRZAW,[8]; rate 0.016 kg/ha,4.5
same,Postemergence herbicidal rating TRZAW,[8]; rate 0.032 kg/ha,4.5
same,Postemergence herbicidal rating SETVI,[9]; rate 0.016 kg/ha,4.0
same,Postemergence herbicidal rating SETVI,[9]; rate 0.032 kg/ha,5.0
same,Postemergence herbicidal rating ABUTH,[10]; rate 0.016 kg/ha,9.0
same,Postemergence herbicidal rating ABUTH,[10]; rate 0.032 kg/ha,9.0
same,Postemergence herbicidal rating GLXMA,[11]; rate 0.016 kg/ha,8.0
same,Postemergence herbicidal rating GLXMA,[11]; rate 0.032 kg/ha,8.0
same,Preemergence herbicidal rating ZEAMX,[12]; rate 0.125 kg/ha,0.0
same,Preemergence herbicidal rating ZEAMX,[12]; rate 0.25 kg/ha,1.0
same,Preemergence herbicidal rating IPOHE,[13]; rate 0.125 kg/ha,9.0
same,Preemergence herbicidal rating IPOHE,[13]; rate 0.25 kg/ha,9.0
same,Preemergence herbicidal rating AMBEL,[14]; rate 0.125 kg/ha,8.0
same,Preemergence herbicidal rating AMBEL,[14]; rate 0.25 kg/ha,8.0
same,Preemergence herbicidal rating ALMOY,[15]; rate 0.125 kg/ha,0.0
same,Preemergence herbicidal rating ALMOY,[15]; rate 0.25 kg/ha,0.0
same,Preemergence herbicidal rating CHEAL,[16]; rate 0.125 kg/ha,9.0
same,Preemergence herbicidal rating CHEAL,[16]; rate 0.25 kg/ha,7.0
same,Preemergence herbicidal rating DIGSA,[17]; rate 0.125 kg/ha,0.0
same,Preemergence herbicidal rating DIGSA,[17]; rate 0.25 kg/ha,3.0
same,Preemergence herbicidal rating ECHCG,[18]; rate 0.125 kg/ha,0.0
same,Preemergence herbicidal rating ECHCG,[18]; rate 0.25 kg/ha,3.0
same,Preemergence herbicidal rating TRZAW,[19]; rate 0.125 kg/ha,0.0
same,Preemergence herbicidal rating TRZAW,[19]; rate 0.25 kg/ha,0.0
same,Preemergence herbicidal rating SETVI,[20]; rate 0.125 kg/ha,0.0
same,Preemergence herbicidal rating SETVI,[20]; rate 0.25 kg/ha,2.0
same,Preemergence herbicidal rating ABUTH,[21]; rate 0.125 kg/ha,9.0
same,Preemergence herbicidal rating ABUTH,[21]; rate 0.25 kg/ha,9.0
same,Preemergence herbicidal rating XANST,[22]; rate 0.125 kg/ha,0.0
same,Preemergence herbicidal rating XANST,[22]; rate 0.25 kg/ha,7.0
same,Preemergence herbicidal rating GLXMA,[23]; rate 0.125 kg/ha,0.0
same,Preemergence herbicidal rating GLXMA,[23]; rate 0.25 kg/ha,2.0
